Values of other authors, collected in patent US7879357B2 (priority 2003, dated 2011).

Conditions: skin of the retro-auricular region and the scrotum

C[C@]12CCC(=O)C=C1CC[C@@H]1[C@@H]2[C@@H](O)C[C@@]2(C)[C@H]1CC[C@]2(O)C(=O)CO [hydrocortisone]
uptake rate through the skin compared to the lower arm: up to 40 ×
